Source: US20250179066A1, “ZWITTERIONIC ANTIBACTERIAL COMPOUNDS” (Hoffmann-La Roche Inc., priority 2022, published 2025)
Structures can show the parent of a compound that is named as a salt.

These molecules were tested on Acinetobacter baumannii ATCC17961 (assay: Antimicrobial susceptibility testing: 90% growth inhibitory concentration (IC90) determination). Details: Acinetobacter baumannii, ATCC17961, 16 h, 90% growth inhibitory concentration against Acinetobacter baumannii ATCC17961, Iso-Sensitest broth, OD 600 nm over 16 h; read-out: ATCC 17961 IC90.
Assay type: cell-based
Procedure, shortened: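 OD600 monitored each minute over 16 h at 35±2° C for bacteria (~5×10^5 CFU/mL final) in Iso-Sensitest medium with 10-point twofold compound series (e.g. 10-0.0195 μM final). Concentration giving 90% growth inhibition in log phase reported as IC90.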

Structure (SMILES)	IC90
COc1ccc(-n2cc(-c3cnc(C(=O)Nc4ccc(C(=O)N5CCN(C(=O)C6CC[N+](CC(=O)O)(CC7CNC7)CC6)CC5)c(Cl)c4)n3C)c(C(F)(F)F)n2)cn1 (stereo not shown) [Example 82, 2-[1-(azetidin-3-ylmethyl)-4-[4-[2-chloro-4-[[5-[1-(6-methoxy-3-pyridyl)-3-(trifluoromethyl)pyrazol-4-yl]-1-methyl-imidazole-2-carbonyl]amino]benzoyl]piperazine-1-carbonyl]piperidin-1-ium-1-yl]acetic acid. 1:1 2,2,2-trifluoroacetate]	1220 nM
Cn1c(-c2cn(-c3ccc(NCCCCCCN)cn3)nc2C(F)(F)F)cnc1C(=O)Nc1ccc(C(=O)N2CCN(C(=O)C3CC[N+](CC(=O)O)(CC4CNC4)CC3)CC2)c(Cl)c1 (stereo not shown) [Example 51, 2-[4-[4-[4-[[5-[1-[5-(6-aminohexylamino)-2-pyridyl]-3-(trifluoromethyl)pyrazol-4-yl]-1-methyl-imidazole-2-carbonyl]amino]-2-chloro-benzoyl]piperazine-1-carbonyl]-1-(azetidin-3-ylmethyl)piperidin-1-ium-1-yl]acetic acid. 1:1 2,2,2-trifluoroacetic acid. 1:1 2,2,2-trifluoroacetate]	520 nM
Cn1c(-c2cn(-c3cc4[nH]c(C(=O)N5CC6CNCC(C5)O6)cc4cn3)nc2C(F)(F)F)cnc1C(=O)Nc1ccc(C(=O)N2CCN(C(=O)[C@H]3CC[N@+](CC(=O)O)(CC4CNC4)CC3)CC2)c(Cl)c1 [Example 116, cis-2-[1-(azetidin-3-ylmethyl)-4-[4-[2-chloro-4-[[1-methyl-5-[1-[2-(9-oxa-3,7-diazabicyclo[3.3.1]nonane-3-carbonyl)-1H-pyrrolo[3,2-c]pyridin-6-yl]-3-(trifluoromethyl)pyrazol-4-yl]imidazole-2-carbonyl]amino]benzoyl]piperazine-1-carbonyl]piperidin-1-ium-1-yl]acetic acid. 1:1 2,2,2-trifluoroacetic acid. 1:1 2,2,2-trifluoroacetate]	213 nM
CN1CCN(c2ccc(-n3cc(-c4cnc(C(=O)Nc5ccc(C(=O)N6CCN(C(=O)C7CC[N+](CC(=O)O)(CC8CNC8)CC7)CC6)c(Cl)c5)n4C)c(C(F)(F)F)n3)nc2)CC1 (stereo not shown) [Example 53, 2-[1-(azetidin-3-ylmethyl)-4-[4-[2-chloro-4-[[1-methyl-5-[1-[5-(4-methylpiperazino)-2-pyridyl]-3-(trifluoromethyl)pyrazol-4-yl]imidazole-2-carbonyl]amino]benzoyl]piperazine-1-carbonyl]piperidin-1-ium-1-yl]acetic acid. 1:1 formate]	550 nM
Cn1c(-c2cn(-c3ccc(NCC4CC4(F)F)cn3)nc2C(F)(F)F)cnc1C(=O)Nc1ccc(C(=O)N2CCN(C(=O)C3CC[N+](CC(=O)O)(CC4CNC4)CC3)CC2)c(Cl)c1 (stereo not shown) [Example 6, 2-[1-(azetidin-3-ylmethyl)-4-[4-[2-chloro-4-[[5-[1-[5-[(2,2-difluorocyclopropyl)methylamino]-2-pyridyl]-3-(trifluoromethyl)pyrazol-4-yl]-1-methyl-imidazole-2-carbonyl]amino]benzoyl]piperazine-1-carbonyl]piperidin-1-ium-1-yl]acetic acid. 1:1 2,2,2-trifluoroacetate]	690 nM
Cn1c(-c2cn(-c3cc4[nH]c(C(=O)N5CCSCC5)cc4cn3)nc2C(F)(F)F)cnc1C(=O)Nc1ccc(C(=O)N2CCN(C(=O)[C@H]3CC[N@+](CC(=O)O)(CC4CNC4)CC3)CC2)c(Cl)c1 [Example 122, cis-2-[1-(azetidin-3-ylmethyl)-4-[4-[2-chloro-4-[[1-methyl-5-[1-[2-(thiomorpholine-4-carbonyl)-1H-pyrrolo[3,2-c]pyridin-6-yl]-3-(trifluoromethyl)pyrazol-4-yl]imidazole-2-carbonyl]amino]benzoyl]piperazine-1-carbonyl]piperidin-1-ium-1-yl]acetic acid. 1:1 2,2,2-trifluoroacetate]	235 nM
Cn1c(-c2cn(-c3cc4[nH]c(CCO)cc4cn3)nc2C(F)(F)F)cnc1C(=O)Nc1ccc(C(=O)N2CCN(C(=O)[C@H]3CC[N@+](CC(=O)O)(CC4CNC4)CC3)CC2)c(Cl)c1 [Example 154, cis-2-[1-(azetidin-3-ylmethyl)-4-[4-[2-chloro-4-[[5-[1-[2-(2-hydroxyethyl)-1H-pyrrolo[3,2-c]pyridin-6-yl]-3-(trifluoromethyl)pyrazol-4-yl]-1-methyl-imidazole-2-carbonyl]amino]benzoyl]piperazine-1-carbonyl]piperidin-1-ium-1-yl]acetic acid;formate]	172 nM
Cn1c(-c2cn(-c3cc4nn(CC(N)=O)cc4cn3)nc2C(F)(F)F)cnc1C(=O)Nc1ccc(C(=O)N2CCN(C(=O)[C@H]3CC[N@+](CC(=O)O)(CC4CNC4)CC3)CC2)c(Cl)c1 [Example 149, cis-2-[4-[4-[4-[[5-[1-[2-(2-amino-2-keto-ethyl)pyrazolo[4,3-c]pyridin-6-yl]-3-(trifluoromethyl)pyrazol-4-yl]-1-methyl-imidazole-2-carbonyl]amino]-2-chloro-benzoyl]piperazine-1-carbonyl]-1-(azetidin-3-ylmethyl)piperidin-1-ium-1-yl]acetic acid. 1:1 2,2,2-trifluoroacetate]	744 nM
Cn1c(-c2cn(-c3ccc(O)cc3F)nc2C(F)(F)F)cnc1C(=O)Nc1ccc(C(=O)N2CCN(C(=O)[C@H]3CC[N@+](CC(=O)O)(CC4CNC4)CC3)CC2)c(Cl)c1 [Example 163, cis-2-[1-(azetidin-3-ylmethyl)-4-[4-[2-chloro-4-[[5-[1-(2-fluoro-4-hydroxy-phenyl)-3-(trifluoromethyl)pyrazol-4-yl]-1-methyl-imidazole-3-carbonyl]amino]benzoyl]piperazine-1-carbonyl]piperidin-1-ium-1-yl]acetic acid. 1:1 2,2,2-trifluoroacetate]	190 nM
Cn1c(-c2cn(-c3ccc(N(CCN)CCN)cn3)nc2C(F)(F)F)cnc1C(=O)Nc1ccc(C(=O)N2CCN(C(=O)[C@H]3CC[N@+](CC(=O)O)(CC4CNC4)CC3)CC2)c(Cl)c1 [Example 196, cis-2-[1-(azetidin-3-ylmethyl)-4-[4-[4-[[5-[1-[5-[bis(2-aminoethyl)amino]-2-pyridyl]-3-(trifluoromethyl)pyrazol-4-yl]-1-methyl-imidazole-2-carbonyl]amino]-2-chloro-benzoyl]piperazine-1-carbonyl]piperidin-1-ium-1-yl]acetic acid;formic acid;formate]	185 nM
Cn1c(-c2cn(-c3ccc(NC[C@@H]4CCCN4)cn3)nc2C(F)(F)F)cnc1C(=O)Nc1ccc(C(=O)N2CCN(C(=O)C3CC[N+](CC(=O)O)(CC4CNC4)CC3)CC2)c(Cl)c1 (stereo partly drawn) [Example 28, 2-[1-(azetidin-3-ylmethyl)-4-[4-[2-chloro-4-[[1-methyl-5-[1-[5-[[(2S)-pyrrolidin-2-yl]methylamino]-2-pyridyl]-3-(trifluoromethyl)pyrazol-4-yl]imidazole-2-carbonyl]amino]benzoyl]piperazine-1-carbonyl]piperidin-1-ium-1-yl]acetic acid. 1:1 2,2,2-trifluoroacetic acid. 1:1 2,2,2-trifluoroacetate]	360 nM
Cn1c(-c2cn(-c3ccc(OCCN)cn3)nc2C(F)(F)F)cnc1C(=O)Nc1ccc(C(=O)N2CCN(C(=O)C3CC[N+](CC(=O)O)(CC4CNC4)CC3)CC2)c(Cl)c1 (stereo not shown) [Example 2, 2-[4-[4-[4-[[5-[1-[5-(2-aminoethoxy)-2-pyridyl]-3-(trifluoromethyl)pyrazol-4-yl]-1-methyl-imidazole-2-carbonyl]amino]-2-chloro-benzoyl]piperazine-1-carbonyl]-1-(azetidin-3-ylmethyl)piperidin-1-ium-1-yl]acetic acid. 1:1 2,2,2-trifluoroacetic acid. 1:1 2,2,2-trifluoroacetate]	330 nM
Cn1c(-c2cn(-c3ccc4[nH]c(CO)cc4n3)nc2C(F)(F)F)cnc1C(=O)Nc1ccc(C(=O)N2CCN(C(=O)[C@H]3CC[N@+](CC(=O)O)(CC4CNC4)CC3)CC2)c(Cl)c1 [Example 33, cis-2-[1-(azetidin-3-ylmethyl)-4-[4-[2-chloro-4-[[1-methyl-5-[1-(2-methylol-1H-pyrrolo[3,2-b]pyridin-5-yl)-3-(trifluoromethyl)pyrazol-4-yl]imidazole-2-carbonyl]amino]benzoyl]piperazine-1-carbonyl]piperidin-1-ium-1-yl]acetic acid. 1:1 2,2,2-trifluoroacetate]	380 nM
Cn1c(-c2cn(-c3ccc(N)cc3F)nc2C(F)(F)F)cnc1C(=O)Nc1ccc(C(=O)N2CCN(C(=O)[C@H]3CC[N@@+](CCCN)(CC(=O)O)CC3)CC2)c(Cl)c1 [Example 170, cis-2-[4-[4-[4-[[5-[1-(4-amino-2-fluoro-phenyl)-3-(trifluoromethyl)pyrazol-4-yl]-1-methyl-imidazole-2-carbonyl]amino]-2-chloro-benzoyl]piperazine-1-carbonyl]-1-(3-aminopropyl)piperidin-1-ium-1-yl]acetic acid. 1:1 2,2,2-trifluoroacetate]	199 nM
Cn1c(-c2cn(-c3cc4c(ccn4CC(N)=O)cn3)nc2C(F)(F)F)cnc1C(=O)Nc1ccc(C(=O)N2CCN(C(=O)[C@H]3CC[N@+](CC(=O)O)(CC4CNC4)CC3)CC2)c(Cl)c1 [Example 168, cis-2-[4-[4-[4-[[5-[1-[1-(2-amino-2-keto-ethyl)pyrrolo[3,2-c]pyridin-6-yl]-3-(trifluoromethyl)pyrazol-4-yl]-1-methyl-imidazole-2-carbonyl]amino]-2-chloro-benzoyl]piperazine-1-carbonyl]-1-(azetidin-3-ylmethyl)piperidin-1-ium-1-yl]acetic Acid.1:1 2,2,2-trifluoroacetate]	555 nM
Cn1c(-c2cn(-c3ccc(N)cn3)nc2C(F)(F)F)cnc1C(=O)Nc1ccc(C(=O)N2CCN(C(=O)NCCCc3cc[n+](CC(=O)O)c(CCCN)c3)CC2)c(Cl)c1 [Example 70, 2-[2-(3-Aminopropyl)-4-[3-[[4-[4-[[5-[1-(5-amino-2-pyridyl)-3-(trifluoromethyl)pyrazol-4-yl]-1-methyl-imidazole-2-carbonyl]amino]-2-chloro-benzoyl]piperazine-1-carbonyl]amino]propyl]pyridin-1-ium-1-yl]acetic Acid.1:1 2,2,2-trifluoroacetic Acid.1:1 2,2,2-trifluoroacetate]	850 nM
